Values quoted from earlier work in US20230143309A1, “PYRROLOBENZODIAZEPINE ANTIBODY CONJUGATES” (priority 2016, published 2023).

Key:
[1] = tested on: human tumour cell lines; conditions: for activity against a range of human tumour cell lines: quoted from UCL REF 2014 impact study
[2] = tested on: human tumour xenograft models; conditions: quoted from UCL REF 2014 impact study

| SMILES | cytotoxicity relative to SG2057 (less cytotoxic) ([1]; Hartley et al 2012) | activity in human tumour xenograft models [2] | activity against a range of human tumour cell lines [1] |
| --- | --- | --- | --- |
| C=C1C[C@H]2C=Nc3cc(OCCCOc4cc5c(cc4OC)C(=O)N4CC(=C)C[C@H]4C=N5)c(OC)cc3C(=O)N2C1 [SG2000] | at least 10 times |  |  |
| C=C1C[C@H]2C=Nc3cc(OCCCCCOc4cc5c(cc4OC)C(=O)N4CC(=C)C[C@H]4C=N5)c(OC)cc3C(=O)N2C1 [SG2057] |  | curative activity | picomolar/sub-picomolar activity |
| COc1ccc(C2=CN3C(=O)c4cc(OC)c(OCCCOc5cc6c(cc5OC)C(=O)N5C=C(c7ccc(OC)cc7)C[C@H]5C=N6)cc4N=C[C@@H]3C2)cc1 [SG2202] |  | curative activity | picomolar/sub-picomolar activity |
